“Also recorded” adds a separate entry of the source.
What was measured:
[1] = test system: in vivo cancer and cancer stem cell models; conditions: regardless of anatomic location; cited from earlier work
B78 melanoma = test: ^124I-NM404 PET/CT imaging; assay type: in vivo, mouse; conditions: IV; ~200 mm^3 B78 tumor; image at 71 h
Source text: FIG. 5 is an image showing selective uptake of ^124I-NM404 by B78 melanoma. A mouse bearing a ˜200 mm^3 B78 tumor received IV ^124I-NM404 and had serial PET/CT scans done.
^131I-NM404 has shown selective uptake in vitro in >95% of tumor lines (human and mouse), with poor uptake by non-malignant cells, and with similar tumor specificity seen in vivo. This includes selective uptake in vivo with the B78 tumor (FIG. 5). In our preliminary dosimetry study, we gave ^124I-NM404 to C57BL/6 mice and characterized the time course of TRT exposure by serial PET/CT imaging (as in FIG. 5). […] After those four weeks, the remaining TRT dose to the B78 tumor would be less than 0.25 Gy. We will replicate the data we obtained in our 2-tumor model using xRT (FIG. 3), but use the lowest possible dose of targeted ^131I-NM404 TRT to enable effective elimination of tumor-induced tolerance at all sites of distant disease. However, unlike xRT, which delivers all dose in minutes and is then done, TRT deposits dose over time, depending upon both the biological and physical half-life of the targeted isotope (8 day t½ for ^131I). We want an initial TRT effect at the distant tumor sites to eradicate immune tolerance; however we want the immunosuppressive TRT effect to then be minimal when we give the IT-IC to induce ADCC and the in situ vaccine anti-tumor effects. […]

[2] = test system: tumor lines (human and mouse); test: selective uptake in vitro in tumor lines; assay type: cell-based; conditions: poor uptake by non-malignant cells
Source text: (§1) ^131I-NM404 has shown selective uptake in vitro in >95% of tumor lines (human and mouse), with poor uptake by non-malignant cells, and with similar tumor specificity seen in vivo. This includes selective uptake in vivo with the B78 tumor (FIG. 5). In our preliminary dosimetry study, we gave ^124I-NM404 to C57BL/6 mice and characterized the time course of TRT exposure by serial PET/CT imaging (as in FIG. 5). […] After those four weeks, the remaining TRT dose to the B78 tumor would be less than 0.25 Gy. We will replicate the data we obtained in our 2-tumor model using xRT (FIG. 3), but use the lowest possible dose of targeted ^131I-NM404 TRT to enable effective elimination of tumor-induced tolerance at all sites of distant disease. However, unlike xRT, which delivers all dose in minutes and is then done, TRT deposits dose over time, depending upon both the biological and physical half-life of the targeted isotope (8 day t½ for ^131I). We want an initial TRT effect at the distant tumor sites to eradicate immune tolerance; however we want the immunosuppressive TRT effect to then be minimal when we give the IT-IC to induce ADCC and the in situ vaccine anti-tumor effects. This is essential to allow full tumor destruction at all sites.

B78 tumor [3] = test: Monte Carlo dosimetry from serial ^124I-NM404 PET/CT; assay type: in vivo, C57BL/6 mice
Source text: as §1
(§2) Using the dosimetry calculations from our preliminary data, we estimated that a dose of 3 μCi of ^131I-NM404, should deliver an equivalent of ˜0.2 Gy to the tumor site, a dose that we hypothesized should not be immunosuppressive and should not prevent lymphocyte-mediated tumor destruction. As noted above, this is the dose we estimated would remain yet to be delivered 28 days after an initial ^131I-NM404 dose of 60 μCi. We thus evaluated groups of mice bearing a single 200 mm^3 B78 tumor. On day 0, all mice got 12 Gy xRT to their tumor, and on days 6-10, all got 50 mcg/d of IT-IC. One group also got 3 μCi of ^131I-NM404 on d-0 (˜0.2 Gy). […] We thus hypothesize that if we use an initial dose of 60 μCi of ^131I-NM404 TRT on day-22, it would effectively block the tolerogenic effect of distant tumors, yet enable xRT on day 0 and IT-IC on days 6-10 (28 d after the TRT) to the first tumor to function as an in situ vaccine, inducing an adaptive response that then eradicates all tumors.
Based on the preliminary data described above in Examples 1-4, studies have been done to move these concepts into in vivo testing using TRT. […] This was done in order to estimate the amount of ^131I-NM404 that would be needed to approximate ˜2 Gy of xRT.
In most clinical scenarios, it is not feasible to deliver external beam, even low dose, to all tumor sites without eliciting marked bone marrow depletion and leukopenia that would result in immunosuppression. […]

B78 tumor [4] = test: ^131I-NM404 with xRT+IT-IC, single B78 tumor; assay type: in vivo, mice
Source text: as §2
Using the data summarized in Examples 7 and 8, a study was done in mice bearing 2 separate B78 tumors. Mice received the estimated required systemic ^131I-NM404 dose followed by xRT and local immunotherapy to the in situ vaccine site. […]

B78 tumors = test: low dose ^131I-NM404 TRT: blood counts and tumor infiltrating T cells; assay type: in vivo, C57BL/6 mice
Source text: (§3) In order to then determine if a ˜2 Gy equivalent dose of ^131I-NM404 would have the desired effects against intratumor lymphoid cells (particularly Tregs), 2 separate approaches have been pursued.
A second approach involved treating mice with B78 tumors with these same doses of ^131I-NM404. […] This observation again supports our hypothesis that it will be feasible to use TRT to overcome Treg-mediated CIT in order to rescue an in situ vaccine effect in animals bearing multiple tumors.
In most clinical scenarios, it is not feasible to deliver external beam, even low dose, to all tumor sites without eliciting marked bone marrow depletion and leukopenia that would result in immunosuppression. Here we tested whether TRT could be administered systemically to specifically deplete tumor infiltrating suppressive immune cells (Tregs), without triggering systemic immune cell depletion and leukopenia. Dosimetry studies in this B78 melanoma tumor model were performed using positron-emitting ^124I-NM404 confirm tumor-selective uptake of NM404 (FIG. 12A). C57BL/6 mice bearing B78 tumors were treated with 60 μCi ^131I-NM404. This activity approximates the amount of ^131I-NM404 necessary to deliver ˜2 Gy TRT to a B78 tumor. Peripheral blood and tumor samples were collected in untreated control mice (C) and at 8 day intervals (T1=d8, T2=d16, T3=d24, T4=d32) thereafter.

[5] = test system: radiosensitive lymphoma tumor; test: ^131I-NM404 in mice bearing a radiosensitive lymphoma tumor; assay type: in vivo; conditions: ~2 Gy equivalent dose
Source text: as §3

B78 tumor tissue = test: RT-PCR gene expression of immune signatures in tumor tissue after TRT; assay type: in vivo, mice; conditions: TRT alone; pretreatment and 8 d intervals
Procedure: Finally, to characterizing the immunological effects of TRT on the immune cells within tumors, we have treated B78 bearing mice with ^131I-NM404 and collected tumor tissue at pretreatment and at half-life (8 d) intervals thereafter. These tissues were then analyzed by RT-PCR for gene expression of a panel of immune signatures.

two B78 tumors = test: ^131I-NM404 + xRT + IT-IC in mice bearing two B78 tumors; assay type: in vivo, C57BL/6 mice; conditions: 60 μCi day 1, 12 Gy xRT to primary day 8, IT-IC days 13-17
Source text: Using the data summarized in Examples 7 and 8, a study was done in mice bearing 2 separate B78 tumors. Mice received the estimated required systemic ^131I-NM404 dose followed by xRT and local immunotherapy to the in situ vaccine site. […] Further testing, and modification of some of the experimental variables, is underway in order to try to maximize the desired effect of blocking CIT without suppressing the in situ vaccine effect. More details regarding these experiments are disclosed in Example 10 below.
Given the capacity of low dose ^131I-NM404 TRT to deplete tumor-infiltrating Tregs without rendering a mouse leukopenic, we tested whether low dose ^131I-NM404 might effectively overcome concomitant immune tolerance. C57BL/6 mice bearing two B78 tumors were treated with 60-μCi ^131I-NM404 on day 1 (NM404), as indicated. After one half-life (day 8), animals received 12 Gy xRT or no xRT to the primary tumor (in situ vaccine site). Control mice receiving no ^131I-NM404 were treated to the secondary tumor as indicated (0, 2, or 12 Gy). Mice received daily IT injections of IC to the primary tumor (in situ vaccine site), as indicated, on days 13-17.

Tregs = test: Treg depletion by diphtheria toxin in DEREG mice with primary and secondary B78 tumors treated with xRT+IT-IC; assay type: in vivo; conditions: IP diphtheria toxin vs PBS, with xRT+IT-IC to primary tumor
[6] = 3 and 4 half-life time points, vs untreated baseline and 2nd half-life

## C[N+](C)(C)CCOP(=O)([O-])OCCCCCCCCCCCCCCCCCCc1ccc(I)cc1 [NM404, 18-(p-iodophenyl)octadecyl phosphocholine]
[1]
  tumor uptake / targeting across in vivo models: near universal tumor uptake in all but three of over 70 in vivo models

## C[N+](C)(C)CCOP(=O)([O-])OCCCCCCCCCCCCCCCCCCc1ccc([124I])cc1 [^124I-NM404]
B78 melanoma
  tumor uptake on PET/CT: Excellent tumor uptake; also recorded: selective uptake by the tumor with some residual background uptake by the heart and liver

## C[N+](C)(C)CCOP(=O)([O-])OCCCCCCCCCCCCCCCCCCc1ccc([131I])cc1 [^131I-NM404]
[2]
  tumor lines with selective uptake in vitro: > 95%
B78 tumor [3]; 3 μCi
  dose delivered to the tumor site: ~0.2 Gy
B78 tumor [3]; after four weeks, initial 60 μCi
  remaining TRT dose to the B78 tumor: less than 0.25 Gy
B78 tumor [3]; mouse, in vivo
  activity necessary to deliver ~2 Gy TRT to a B78 tumor: ~60 μCi
B78 tumor [3]; over a four week period of decay
  activity needed to deliver ~3 Gy to an established B78 tumor: ~60 μCi
B78 tumor [4]; 3 μCi on d-0 (~0.2 Gy), 12 Gy xRT day 0, IT-IC days 6-10
  tumor eradication by xRT+IT-IC with vs without TRT: same degree of tumor eradication; also recorded: equally effective
B78 tumor [4]; estimated required systemic TRT dose, mice with one tumor
  local in situ vaccine effect: did not appear to interfere with the local in situ vaccine effect
B78 tumors; 2 half-life time point
  intratumor effector CD8+ T cells: decrease in intratumor effector CD8+ T cells
B78 tumors; 2 half-lifes after TRT
  intratumor FoxP3+ Tregs: decrease in intratumor FoxP3+ Tregs
B78 tumors; [6]
  intratumor CD8+ effector T cells: increase in intratumor CD8+ effector T cells
  intratumor Tregs: further decline in the levels of intratumor Tregs
B78 tumors; 60 μCi, d8-d32
  level of tumor infiltrating CD8+ effector T cells: did not significantly affect the level of tumor infiltrating CD8+ effector T cells
  tumor infiltrating FoxP3+ Tregs: significantly depleted
B78 tumors; 60 μCi, peripheral blood d8-d32
  systemic leukopenia: did not result in any significant systemic leukopenia
B78 tumors; ~2 Gy equivalent dose
  circulating lymphoid cells (peripheral complete blood counts): did not cause either substantial shrinkage/slowing of the B78 tumor or any evident depletion of circulating lymphoid cells
B78 tumors; ~2 Gy equivalent dose, TRT alone
  B78 tumor growth: did not cause either substantial shrinkage/slowing of the B78 tumor
B78 tumors; ~2 Gy equivalent dose, half-life (8 d) intervals
  systemic lymphopenia (peripheral complete blood count): no systemic lymphopenia at any time point
[5]
  lymphoid tumor response: potent lymphoid tumor shrinkage/dose-dependent inhibition
B78 tumor tissue
  gene expression of immune signatures: striking changes in expression of tumor cell markers of immunsusceptibility and in genes normally expressed only by immune cells
Two B78 tumors
  concomitant immune tolerance (CIT) / primary and secondary tumor response: did appear to attenuate CIT; also recorded: effectively overcomes concomitant immune tolerance and rescues the systemic anti-tumor effect of in situ vaccination
[1]
  tumor uptake / targeting across in vivo models: nearly universal tumor targeting properties in over 60 in vivo cancer and cancer stem cell models

## diphtheria toxin
Tregs
  primary and secondary tumor response: improved primary (FIG. 9B) and secondary (FIG. 9C) tumor response

— patent US11633506B2, “Using targeted radiotherapy (TRT) to drive anti-tumor immune response to immunotherapies” (Wisconsin Alumni Research Foundation, priority 2016, dated 2023)
